Assay results from ChEMBL document CHEMBL1671626, “In vitro profiling of ceftaroline against a collection of recent bacterial clinical isolates from across the United States” (2008).
Converted amounts (≈) assume the structure as drawn.

How the values were obtained:
Assay type in all cases: functional
Enterobacteriaceae [1] = assay: Antibacterial activity against ceftazidime-susceptible Enterobacteriaceae assessed as susceptible isolates by CLSI M7-A7 broth microdilution method
Acinetobacter [2] = assay: Antibacterial activity against imipenem-susceptible Acinetobacter assessed as susceptible isolates by CLSI M7-A7 broth microdilution method
Enterobacter cloacae [3] = assay: Antibacterial activity against ceftazidime-susceptible Enterobacter cloacae assessed as resistant isolates by CLSI M7-A7 broth microdilution method
Citrobacter freundii [4] = assay: Antibacterial activity against ceftazidime-susceptible Citrobacter freundii assessed as resistant isolates by CLSI M7-A7 broth microdilution method
Escherichia coli [5] = assay: Antibacterial activity against ceftazidime-susceptible Escherichia coli assessed as susceptible isolates by CLSI M7-A7 broth microdilution method
Enterobacter cloacae [6] = assay: Antibacterial activity against ceftazidime-nonsusceptible Enterobacter cloacae by CLSI M7-A7 broth microdilution method
Proteus mirabilis [7] = assay: Antibacterial activity against ceftazidime-susceptible Proteus mirabilis by CLSI M7-A7 broth microdilution method
Providencia sp. [8] = assay: Antibacterial activity against ceftazidime-susceptible Providencia sp. assessed as susceptible isolates by CLSI M7-A7 broth microdilution method
Enterobacter cloacae [9] = assay: Antibacterial activity against ceftazidime-nonsusceptible Enterobacter cloacae assessed as resistant isolates by CLSI M7-A7 broth microdilution method
Acinetobacter [10] = assay: Antibacterial activity against multidrug-resistant Acinetobacter by CLSI M7-A7 broth microdilution method
Enterobacteriaceae [11] = assay: Antibacterial activity against ceftazidime-susceptible Enterobacteriaceae assessed as resistant isolates by CLSI M7-A7 broth microdilution method
Haemophilus influenzae [12] = assay: Antibacterial activity against beta lactamase-negative Haemophilus influenzae assessed as susceptible isolates by CLSI M7-A7 broth microdilution method
Acinetobacter [13] = assay: Antibacterial activity against imipenem-susceptible Acinetobacter by CLSI M7-A7 broth microdilution method
Providencia sp. [14] = assay: Antibacterial activity against ceftazidime-susceptible Providencia sp. assessed as resistant isolates by CLSI M7-A7 broth microdilution method
Enterobacter cloacae [15] = assay: Antibacterial activity against ceftazidime-susceptible Enterobacter cloacae assessed as susceptible isolates by CLSI M7-A7 broth microdilution method
Haemophilus influenzae [16] = assay: Antibacterial activity against beta lactamase-positive Haemophilus influenzae by CLSI M7-A7 broth microdilution method
Enterobacteriaceae [17] = assay: Antibacterial activity against ceftazidime-nonsusceptible Enterobacteriaceae assessed as susceptible isolates by CLSI M7-A7 broth microdilution method
Proteus mirabilis [18] = assay: Antibacterial activity against ceftazidime-susceptible Proteus mirabilis assessed as susceptible isolates by CLSI M7-A7 broth microdilution method
Klebsiella pneumoniae [19] = assay: Antibacterial activity against ceftazidime-nonsusceptible Klebsiella pneumoniae assessed as resistant isolates by CLSI M7-A7 broth microdilution method
Klebsiella pneumoniae [20] = assay: Antibacterial activity against ceftazidime-susceptible Klebsiella pneumoniae by CLSI M7-A7 broth microdilution method
Enterobacter cloacae [21] = assay: Antibacterial activity against ceftazidime-nonsusceptible Enterobacter cloacae assessed as susceptible isolates by CLSI M7-A7 broth microdilution method
Escherichia coli [22] = assay: Antibacterial activity against ceftazidime-nonsusceptible Escherichia coli by CLSI M7-A7 broth microdilution method
Escherichia coli [23] = assay: Antibacterial activity against ceftazidime-nonsusceptible Escherichia coli assessed as resistant isolates by CLSI M7-A7 broth microdilution method
Citrobacter freundii [24] = assay: Antibacterial activity against ceftazidime-susceptible Citrobacter freundii by CLSI M7-A7 broth microdilution method
Citrobacter freundii [25] = assay: Antibacterial activity against ceftazidime-nonsusceptible Citrobacter freundii by CLSI M7-A7 broth microdilution method
Acinetobacter [26] = assay: Antibacterial activity against multidrug-resistant Acinetobacter assessed as resistant isolates by CLSI M7-A7 broth microdilution method
Providencia sp. [27] = assay: Antibacterial activity against ceftazidime-susceptible Providencia sp. by CLSI M7-A7 broth microdilution method
Enterobacteriaceae [28] = assay: Antibacterial activity against ceftazidime-nonsusceptible Enterobacteriaceae by CLSI M7-A7 broth microdilution method
Escherichia coli [29] = assay: Antibacterial activity against ceftazidime-susceptible Escherichia coli by CLSI M7-A7 broth microdilution method
Proteus mirabilis [30] = assay: Antibacterial activity against ceftazidime-susceptible Proteus mirabilis assessed as resistant isolates by CLSI M7-A7 broth microdilution method
Haemophilus influenzae [31] = assay: Antibacterial activity against beta lactamase-negative Haemophilus influenzae assessed as resistant isolates by CLSI M7-A7 broth microdilution method
Citrobacter freundii [32] = assay: Antibacterial activity against ceftazidime-susceptible Citrobacter freundii assessed as susceptible isolates by CLSI M7-A7 broth microdilution method
Serratia marcescens [33] = assay: Antibacterial activity against ceftazidime-susceptible Serratia marcescens assessed as resistant isolates by CLSI M7-A7 broth microdilution method
Enterobacter cloacae [34] = assay: Antibacterial activity against ceftazidime-susceptible Enterobacter cloacae by CLSI M7-A7 broth microdilution method
Acinetobacter [35] = assay: Antibacterial activity against imipenem-susceptible Acinetobacter assessed as resistant isolates by CLSI M7-A7 broth microdilution method
Morganella morganii [36] = assay: Antibacterial activity against ceftazidime-susceptible Morganella morganii assessed as resistant isolates by CLSI M7-A7 broth microdilution method
Klebsiella pneumoniae [37] = assay: Antibacterial activity against ceftazidime-nonsusceptible Klebsiella pneumoniae by CLSI M7-A7 broth microdilution method
Enterobacteriaceae [38] = assay: Antibacterial activity against ceftazidime-susceptible Enterobacteriaceae by CLSI M7-A7 broth microdilution method
Escherichia coli [39] = assay: Antibacterial activity against ceftazidime-nonsusceptible Escherichia coli assessed as susceptible isolates by CLSI M7-A7 broth microdilution method
Acinetobacter [40] = assay: Antibacterial activity against multidrug-resistant Acinetobacter assessed as susceptible isolates by CLSI M7-A7 broth microdilution method
Enterobacteriaceae [41] = assay: Antibacterial activity against ceftazidime-nonsusceptible Enterobacteriaceae assessed as resistant isolates by CLSI M7-A7 broth microdilution method
Escherichia coli [42] = assay: Antibacterial activity against ceftazidime-susceptible Escherichia coli assessed as resistant isolates by CLSI M7-A7 broth microdilution method
Citrobacter freundii [43] = assay: Antibacterial activity against ceftazidime-nonsusceptible Citrobacter freundii assessed as susceptible isolates by CLSI M7-A7 broth microdilution method
Klebsiella pneumoniae [44] = assay: Antibacterial activity against ceftazidime-nonsusceptible Klebsiella pneumoniae assessed as susceptible isolates by CLSI M7-A7 broth microdilution method
Citrobacter freundii [45] = assay: Antibacterial activity against ceftazidime-nonsusceptible Citrobacter freundii assessed as resistant isolates by CLSI M7-A7 broth microdilution method
Haemophilus influenzae [46] = assay: Antibacterial activity against beta lactamase-positive Haemophilus influenzae assessed as resistant isolates by CLSI M7-A7 broth microdilution method
Morganella morganii [47] = assay: Antibacterial activity against ceftazidime-susceptible Morganella morganii assessed as susceptible isolates by CLSI M7-A7 broth microdilution method
Klebsiella pneumoniae [48] = assay: Antibacterial activity against ceftazidime-susceptible Klebsiella pneumoniae assessed as resistant isolates by CLSI M7-A7 broth microdilution method
Klebsiella pneumoniae [49] = assay: Antibacterial activity against ceftazidime-susceptible Klebsiella pneumoniae assessed as susceptible isolates by CLSI M7-A7 broth microdilution method
Morganella morganii [50] = assay: Antibacterial activity against ceftazidime-susceptible Morganella morganii by CLSI M7-A7 broth microdilution method
Haemophilus influenzae [51] = assay: Antibacterial activity against beta lactamase-positive Haemophilus influenzae assessed as susceptible isolates by CLSI M7-A7 broth microdilution method
Serratia marcescens [52] = assay: Antibacterial activity against ceftazidime-susceptible Serratia marcescens assessed as susceptible isolates by CLSI M7-A7 broth microdilution method
Haemophilus influenzae [53] = assay: Antibacterial activity against beta lactamase-negative Haemophilus influenzae by CLSI M7-A7 broth microdilution method
Serratia marcescens [54] = assay: Antibacterial activity against ceftazidime-susceptible Serratia marcescens by CLSI M7-A7 broth microdilution method

## CCN1CCN(C(=O)N[C@@H](C(=O)N[C@@H]2C(=O)N3[C@@H]2SC(C)(C)[C@@H]3C(=O)O)c2ccccc2)C(=O)C1=O [PIPERACILLIN]
Enterobacteriaceae [1]
  Activity: 97%
Acinetobacter [2]
  Activity: 68.1%
Enterobacter cloacae [3]
  Activity: 2%
Citrobacter freundii [4]
  Activity: 0%
Escherichia coli [5]
  Activity: 96.5%
Enterobacter cloacae [6]
  MIC50: > 64 µg/mL
  MIC90: > 64 µg/mL
Proteus mirabilis [7]
  MIC: ≤ 0.5 µg/mL
  MIC50: ≤ 0.5 µg/mL
  MIC90: 1 µg/mL (≈ 1.93 µM)
Providencia sp. [8]
  Activity: 92.6%
Enterobacter cloacae [9]
  Activity: 54.3%
Acinetobacter [10]
  MIC50: > 64 µg/mL
Enterobacteriaceae [11]
  Activity: 1.6%
Haemophilus influenzae [12]
  Activity: 100%
Acinetobacter [13]
  MIC50: 8 µg/mL (≈ 15.5 µM)
  MIC90: > 64 µg/mL
Providencia sp. [14]
  Activity: 3.7%
Enterobacter cloacae [15]
  Activity: 98%
Haemophilus influenzae [16]
  MIC: ≤ 0.03 µg/mL
  MIC50: ≤ 0.03 µg/mL
  MIC90: 0.06 µg/mL (≈ 0.116 µM)
Enterobacteriaceae [17]
  Activity: 43.2%
Proteus mirabilis [18]
  Activity: 100%
Klebsiella pneumoniae [19]
  Activity: 62.1%
Klebsiella pneumoniae [20]
  MIC50: 2 µg/mL (≈ 3.86 µM)
  MIC90: 8 µg/mL (≈ 15.5 µM)
Enterobacter cloacae [21]
  Activity: 25.7%
Escherichia coli [22]
  MIC50: 16 µg/mL (≈ 30.9 µM)
  MIC90: > 64 µg/mL
Escherichia coli [23]
  Activity: 17.5%
Citrobacter freundii [24]
  MIC50: 2 µg/mL (≈ 3.86 µM)
  MIC90: 4 µg/mL (≈ 7.73 µM)
Citrobacter freundii [25]
  MIC50: 32 µg/mL (≈ 61.8 µM)
  MIC90: > 64 µg/mL
Acinetobacter [26]
  Activity: 87.5%
Providencia sp. [27]
  MIC50: 2 µg/mL (≈ 3.86 µM)
  MIC90: 16 µg/mL (≈ 30.9 µM)
Enterobacteriaceae [28]
  MIC50: 32 µg/mL (≈ 61.8 µM)
  MIC90: > 64 µg/mL
Escherichia coli [29]
  MIC50: 1 µg/mL (≈ 1.93 µM)
  MIC90: 4 µg/mL (≈ 7.73 µM)
Proteus mirabilis [30]
  Activity: 0%
Haemophilus influenzae [31]
  Activity: 0%
Citrobacter freundii [32]
  Activity: 100%
Serratia marcescens [33]
  Activity: 3.4%
Enterobacter cloacae [34]
  MIC50: 2 µg/mL (≈ 3.86 µM)
  MIC90: 4 µg/mL (≈ 7.73 µM)
Acinetobacter [35]
  Activity: 21.3%
Morganella morganii [36]
  Activity: 0%
Klebsiella pneumoniae [37]
  MIC50: > 64 µg/mL
  MIC90: > 64 µg/mL
Enterobacteriaceae [38]
  MIC50: 2 µg/mL (≈ 3.86 µM)
  MIC90: 4 µg/mL (≈ 7.73 µM)
Escherichia coli [39]
  Activity: 68.3%
Acinetobacter [40]
  Activity: 0%
Enterobacteriaceae [41]
  Activity: 38.6%
Escherichia coli [42]
  Activity: 2.3%
Citrobacter freundii [43]
  Activity: 24.2%
Klebsiella pneumoniae [44]
  Activity: 24.2%
Citrobacter freundii [45]
  Activity: 39.4%
Haemophilus influenzae [46]
  Activity: 1%
Morganella morganii [47]
  Activity: 100%
Klebsiella pneumoniae [48]
  Activity: 0.5%
Klebsiella pneumoniae [49]
  Activity: 97.1%
Morganella morganii [50]
  MIC: ≤ 0.5 µg/mL
  MIC50: ≤ 0.5 µg/mL
  MIC90: 1 µg/mL (≈ 1.93 µM)
Haemophilus influenzae [51]
  Activity: 99%
Serratia marcescens [52]
  Activity: 93.2%
Haemophilus influenzae [53]
  MIC: ≤ 0.03 µg/mL
  MIC50: ≤ 0.03 µg/mL
  MIC90: 0.06 µg/mL (≈ 0.116 µM)
Serratia marcescens [54]
  MIC50: 2 µg/mL (≈ 3.86 µM)
  MIC90: 16 µg/mL (≈ 30.9 µM)
